Assay results: US4808596A, “Imidazo[4,5-b]pyridine compounds and pharmaceutical compositions containing same” (Tokyo Tanabe Company, Ltd., priority 1986, dated 1989)
Read-outs that look alike come from different tables or passages of the source.

Key:
physchem = format: physicochemical; details: for remaining at 192 h: solid
Method: The storage stability of the present compounds [I] was tested by allowing each test compound to stand under severe conditions (i.e., a temperature of 60° C. and a relative humidity of 75%) for 8 days and then determining its percentage of residue according to a thin-layer densitometric method (Bunseki Kagaku, Vol. 23, No. 9, p. 1016, 1974). More specifically, upon completion of the severe treatment, 100 μg of each test compound was applied to a thin-layer plate and this plate was developed with a chloroform-ethanol mixture (volume ratio 10:1). The thin-layer plate used for this purpose was a TLC Plate Aluminum Oxide 60F254 (manufactured by Merck Co.; 0.25 mm in thickness and 20 cm×20 cm in size), and it was developed over a distance of 15 cm. Then, using a Shimazu Two-wavelength Chromatoscanner CS-910 (manufactured by Shimazu Seisakusho), the resulting spot was analyzed at a wavelength of 300-315 nm.
For purposes of comparison, the percentages of residue of Omeprazole (at a measuring wavelength of 300 nm) and Compounds α and β (at a measuring wavelength of 310 nm) were determined in the same manner as described above and are also shown in Table 1.

Shay's ulcer = assay: Inhibitory effect on Shay's ulcer; format: in vivo, male Wistar rats; details: Rattus norvegicus; oral, rats; 30 minutes before ligation; 14 hours; read-out: Inhibitory effect on Shay's ulcer, ID50
Method: (§1) The inhibitory effects of the present compounds [I] on various experimental ulcers were tested by using male Wistar rats, weighing about 200 g, in groups of six and determining the respective ulceration indexes for 5 types of experimental ulcers. In each test, the test compounds were suspended in a 0.5% aqueous solution of carboxymethyl cellulose and administered orally in a series of appropriately selected doses ranging from 1 to 100 mg/kg. The test procedures for 5 types of experimental ulcers were as follows:
In rats which had been fasted for 48 hours, the pyloric end of the stomach was ligated and they were maintained for 14 hours without giving any food or water. Then, each rat was sacrificed and the area of the ulcer(s) formed in the forestomach part was measured. The ulceration index was calculated on the basis of the data thus obtained. The test compounds were administered 30 minutes before ligation.
(§2) The pharmacological effect of the test compounds on each of the aforesaid experimental ulcers was evaluated on the basis of the dose (in mg/kg) required to inhibit the formation of ulcers by 50% (hereinafter referred to as ID50). The ID50 value of each test compound was determined by calculating the difference in ulceration index between the untreated group and each treated group, dividing the difference by the ulceration index of the untreated group to obtain the degree of inhibition, and constructing a dose-response curve on the basis of the data thus obtained. For purposes of comparison, the ID50 values of Omeprazole and Compounds α and β were determined in the same manner as described above and are also shown in Table 4.

Aspirin ulcer = assay: Inhibitory effect on aspirin ulcer; format: in vivo, male Wistar rats; details: Rattus norvegicus; oral, rats; 30 minutes before ligation; aspirin 150 mg/kg; 7 hours; read-out: Inhibitory effect on Aspirin ulcer, ID50
Method: as §1
In rats which had been fasted for 24 hours, the pyloric end of the stomach was ligated. After 5 minutes, aspirin was orally administered thereto in a dose of 150 mg/kg. Seven hours after ligation, each rat was sacrificed and the length of the ulcer(s) formed in the glandular stomach part was measured. The ulceration index was calculated on the basis of the data thus obtained. The test compounds were administered 30 minutes before ligation.
as §2

[1] = Acute toxicity test (LD50); details: rat, in vivo, rats
Method: The acute toxicity (LD50) of several typical examples of the present compounds [I] (i.e., the compounds of Examples 1, 8, 13, 19, 24, 26 and 33) was tested with 5-weeks-old male Wistar rats. […] When Omeprazole was administered orally, its LD50 value was greater than 4000 mg/kg.

[2] = tested on: various experimental ulcers; assay: Inhibitory effects on various experimental ulcers (overall statement); parameters: species or system male Wistar rats; details: in vivo
Method: as §1, §2

[3] = ip, intraperitoneal administration

Row | SMILES | remaining at 192 h (physchem; 75% rh) | ED50 (Shay's ulcer) | ED50 (Aspirin ulcer) | LD50 [1, 3] | LD50 ([1]; oral administration) | storage stability (in words) (physchem) | inhibitory effects on various experimental ulcers (in words) [2] | remaining at 192 h (physchem; after treatment at 60° C. and 75% RH for 8 days, read-out: Storage stability, Percentage of residue)
1 | COc1c(C)cnc(C[S+]([O-])c2nc3nc(OCC(F)(F)F)ccc3[nH]2)c1C (stereo not drawn) [Example 26, 2-[2-(3,5-Dimethyl-4-methoxy)pyridylmethylsulfinyl]-5-(2,2,2-trifluoroethoxy)imidazo[4,5-b]pyridine] | 92% | 14.7 mg/kg | 9.5 mg/kg | > 500 mg/kg | > 4000 mg/kg | – | – | –
2 | COc1cc(C[S+]([O-])c2nc3nc(OCC4CC4)ccc3[nH]2)ncc1C (stereo not drawn) [Example 13, 2-[2-(4-Methoxy-5-methyl)pyridylmethylsulfinyl]-5-cyclopropylmethyloxyimidazo[4,5-b]pyridine] | 88% | 17.4 mg/kg | 14.5 mg/kg | > 500 mg/kg | > 4000 mg/kg | – | – | –
3 | CCOc1ccc2[nH]c([S+]([O-])Cc3ncc(C)c(C)c3C)nc2n1 (stereo not drawn) [Example 8, 2-[2-(3,4,5-Trimethyl)pyridylmethylsulfinyl]-5-ethoxyimidazo[4,5-b]pyridine] | 96% | 15.1 mg/kg | 10.7 mg/kg | > 500 mg/kg | > 4000 mg/kg | – | – | –
4 | COc1c(C)cnc(C[S+]([O-])c2nc3ncc(C)cc3[nH]2)c1C (stereo not drawn) [Compound β, 2-[2-(3,5-dimethyl-4-methoxy)pyridylmethylsulfinyl]-6-methylimidazo[4,5-b]-pyridine, reference compound] | 9% | 42 mg/kg | 23.8 mg/kg | – | – | defective in storage stability | not satisfactorily reflected in the in vivo tests | –
5 | CCCCCCCOc1ccc2[nH]c([S+]([O-])Cc3ncc(C)cc3C)nc2n1 (stereo not drawn) [Example 33, 2-[2-(3,5-Dimethyl)pyridylmethylsulfinyl]-5-n-heptyloxyimidazo[4,5-b]pyridine] | 89% | 19.2 mg/kg | 12.6 mg/kg | > 500 mg/kg | > 4000 mg/kg | – | – | –
6 | COc1c(C)cnc(C[S+]([O-])c2nc3ncc(Br)cc3[nH]2)c1C (stereo not drawn) [Compound α, 2-[2-(3,5-dimethyl-4-methoxy)pyridylmethylsulfinyl]-6-bromoimidazo[4,5-b]pyridine, reference compound] | 0% | ≥ 100 mg/kg | ≥ 100 mg/kg | – | – | defective in storage stability | not satisfactorily reflected in the in vivo tests | –
7 | COc1ccc2[nH]c([S+]([O-])Cc3ncc(C)cc3C)nc2n1 (stereo not drawn) [Example 1, 2-[2-(3,5-Dimethyl)pyridylmethylsulfinyl]-5-methoxyimidazo[4,5-b]pyridine] | 98% | 11 mg/kg | 6.3 mg/kg | > 500 mg/kg | > 4000 mg/kg | – | – | –
8 | COc1c(C)cnc(C[S+]([O-])c2nc3nc(OCC4CC4)ccc3[nH]2)c1C (stereo not drawn) [Example 24, 2-[2-(3,5-Dimethyl-4-methoxy)pyridylmethylsulfinyl]-5-cyclopropylmethyloxyimidazo[4,5-b]pyridine] | 94% | 10.8 mg/kg | 5.4 mg/kg | > 500 mg/kg | > 4000 mg/kg | – | – | –
9 | COc1ccc2[nH]c([S+]([O-])Cc3ncc(C)c(OC)c3C)nc2c1 (stereo not drawn) [Omeprazole, reference compound] | – | 30.3 mg/kg | 17.2 mg/kg | – | > 4000 mg/kg | undergoes a higher degree of deterioration than might be expected | – | 3%
